Row | Structure (SMILES) | melting point [°C]
1 | CCCn1nc(OCc2ccc3ccccc3n2)cc1COc1c(CC)cccc1CC(=O)O [Example 5, (3-ethyl-2-{[1-propyl-3-(quinolin-2-ylmethoxy)-1H-pyrazol-5-yl]methoxy}phenyl)acetic acid] | 118 to 119
2 | CCCOc1cc(COc2c(CC)cccc2CC(=O)O)n(Cc2ccc3ccccc3n2)n1 [Example 7, (3-ethyl-2-{[3-propoxy-1-(quinolin-2-ylmethyl)-1H-pyrazol-5-yl]methoxy}phenyl)acetic acid] | 110 to 111
3 | COc1cccc(CC(=O)O)c1OCc1cc(OC(C)C)nn1Cc1ccc2ccccc2n1 [Example 8, (2-{[3-isopropoxy-1-(quinolin-2-ylmethyl)-1H-pyrazol-5-yl]methoxy}-3-methoxyphenyl)acetic acid] | 129 to 130
4 | COc1cccc(CC(=O)O)c1OCc1cc(OCc2ccc3ccccc3n2)n(C(C)C)n1 [Example 9, (2-{[1-isopropyl-5-(quinolin-2-ylmethoxy)-1H-pyrazol-3-yl]methoxy}-3-methoxyphenyl)acetic acid] | 84 to 85
5 | COc1cccc(CC(=O)O)c1OCCCc1cc(OC(C)C)nn1Cc1ccc2ccccc2n1 [Example 10, (2-{3-[3-isopropoxy-1-(quinolin-2-ylmethyl)-1H-pyrazol-5-yl]propoxy}-3-methoxyphenyl)acetic acid] | 129 to 130
6 | CCCOc1cc(CCCOc2c(CC(=O)O)cccc2OC)n(Cc2ccc3ccccc3n2)n1 [Example 11, (3-methoxy-2-{3-[3-propoxy-1-(quinolin-2-ylmethyl)-1H-pyrazol-5-yl]propoxy}phenyl)acetic acid] | 97 to 98
7 | CCOc1cccc(CC(=O)O)c1OCCCc1cc(OC(C)C)nn1Cc1ccc(Cl)cc1Cl [Example 23, (2-{3-[1-(2,4-dichlorobenzyl)-3-isopropoxy-1H-pyrazol-5-yl]propoxy}-3-ethoxyphenyl)acetic acid] | 132 to 133
8 | Cc1cccc(CC(=O)O)c1OCCCc1cc(OC(C)C)nn1Cc1ccc(Cl)cc1Cl [Example 24, (2-{3-[1-(2,4-dichlorobenzyl) -3-isopropoxy-1H-pyrazol-5-yl]propoxy}-3-methylphenyl)acetic acid] | 70 to 71
9 | CCOc1cc(CCCOc2c(CC(=O)O)cccc2OC)n(Cc2ccc(Cl)cc2Cl)n1 [Example 26, (2-{3-[1-(2,4-dichlorobenzyl)-3-ethoxy-1H-pyrazol-5-yl]propoxy}-3-methoxyphenyl)acetic acid] | 109 to 110
10 | COc1cc(CCCOc2c(CC(=O)O)cccc2OC)n(Cc2ccc(Cl)cc2Cl)n1 [Example 28, (2-{3-[1-(2,4-dichlorobenzyl)-3-methoxy-1H-pyrazol-5-yl]propoxy}-3-methoxyphenyl)acetic acid] | 111 to 112
11 | CCc1cccc(CC(=O)O)c1OCCCc1cc(OC(C)C)nn1Cc1ccc(Cl)cc1Cl [Example 29, (2-{3-[1-(2,4-dichlorobenzyl)-3-isopropoxy-1H-pyrazol-5-yl]propoxy}-3-ethylphenyl)acetic acid] | 98 to 99
12 | CC(C)Oc1cc(CCCOc2nn(C)cc2CC(=O)O)n(Cc2ccc(Cl)cc2Cl)n1 [Example 32, (3-{3-[1-(2,4-dichlorobenzyl)-3-isopropoxy-1H-pyrazol-5-yl]propoxy}-1-methyl-1H-pyrazol-4-yl)acetic acid] | 96 to 97
13 | COc1cccc(CC(=O)O)c1OCc1cc(OC(C)C)nn1Cc1ccc(Cl)cc1Cl [Example 50, (2-{[1-(2,4-dichlorobenzyl)-3-isopropoxy-1H-pyrazol-5-yl]methoxy}-3-methoxyphenyl)acetic acid] | 127 to 128
14 | CC(C)c1nc(CCCOc2ncccc2CC(=O)O)c(Cc2ccc(Cl)cc2Cl)s1 [Example 53, (2-{3-[5-(2,4-dichlorobenzyl)-2-isopropyl-1,3-thiazol-4-yl]propoxy}pyridin-3-yl)acetic acid] | 106 to 107
15 | CCc1cccc(CC(=O)O)c1OCCCc1cn(Cc2nc(-c3ccccc3)oc2C)nc1C(C)C [Example 54, [3-ethyl-2-(3-{3-isopropyl-1-[(5-methyl-2-phenyl-1,3-oxazol-4-yl)methyl]-1H-pyrazol-4-yl}propoxy)phenyl]acetic acid] | 94 to 95
16 | CC(C)n1nc(COc2ccccc2CC(=O)O)cc1OCc1ccc2ccccc2n1 [Example 55, (2-{[1-isopropyl-5-(quinolin-2-ylmethoxy)-1H-pyrazol-3-yl]methoxy}phenyl)acetic acid] | 116 to 117
17 | COc1cccc(CC(=O)O)c1OCCCc1cc(OC(C)C)nn1Cc1c(F)cccc1Cl [Example 67, (2-{3-[1-(2-chloro-6-fluorobenzyl)-3-isopropoxy-1H-pyrazol-5-yl]propoxy}-3-methoxyphenyl)acetic acid] | 97 to 98
18 | CCOc1cc(Cl)ccc1Cn1nc(OC(C)C)cc1CCCOc1c(CC(=O)O)cccc1OC [Example 69, (2-{3-[1-(4-chloro-2-ethoxybenzyl)-3-isopropoxy-1H-pyrazol-5-yl]propoxy}-3-methoxyphenyl)acetic acid] | 98 to 99

Row | Structure (SMILES) | melting point [°C]
19 | Cc1cc(Cl)ccc1Cn1nc(OC(C)C)cc1CCCOc1ncccc1CC(=O)O [Example 74, (2-{3-[1-(4-chloro-2-methylbenzyl)-3-isopropoxy-1H-pyrazol-5-yl]propoxy}pyridin-3-yl)acetic acid] | 97 to 98
20 | CCCOc1cc(CCCOc2c(CC(=O)O)cccc2OC)n(Cc2ccc(Cl)cc2)n1 [Example 81, (2-{3-[1-(4-chlorobenzyl)-3-propoxy-1H-pyrazol-5-yl]propoxy}-3-methoxyphenyl)acetic acid] | 131 to 132
21 | CC(C)Oc1cc(CCCOc2c(CC(=O)O)ccc3ccccc23)n(Cc2ccc(Cl)cc2Cl)n1 [Example 87, (1-{3-[1-(2,4-dichlorobenzyl)-3-isopropoxy-1H-pyrazol-5-yl]propoxy}-2-naphthyl)acetic acid] | 96 to 98
22 | CCCOc1cc(CCCOc2nn(C)cc2CC(=O)O)n(Cc2ccc(Cl)cc2Cl)n1 [Example 88, (3-{3-[1-(2,4-dichlorobenzyl)-3-propoxy-1H-pyrazol-5-yl]propoxy}-1-methyl-1H-pyrazol-4-yl)acetic acid] | 77 to 81
23 | CCCOc1cc(CCCOc2nn(Cc3ccccc3)cc2CC(=O)O)n(Cc2ccc(Cl)cc2Cl)n1 [Example 89, (1-benzyl-3-{3-[1-(2,4-dichlorobenzyl)-3-propoxy-1H-pyrazol-5-yl]propoxy}-1H-pyrazol-4-yl)acetic acid] | 132 to 134
24 | CCCOc1cc(CCCOc2nn(Cc3ccccc3)cc2CC(=O)O)n(Cc2ccc(F)cc2F)n1 [Example 90, (1-benzyl-3-{3-[1-(2,4-difluorobenzyl)-3-propoxy-1H-pyrazol-5-yl]propoxy}-1H-pyrazol-4-yl)acetic acid] | 94 to 95
25 | CC(C)Oc1cc(CCCOc2ncccc2CC(=O)O)n(Cc2ccc(Cl)cc2OC(C)C)n1 [Example 94, (2-{3-[1-(4-chloro-2-isopropoxybenzyl)-3-isopropoxy-1H-pyrazol-5-yl]propoxy}pyridin-3-yl)acetic acid] | 82 to 84
26 | CN(C)CCOc1cc(CCCOc2nn(Cc3ccccc3)cc2CC(=O)O)n(Cc2ccc(Cl)cc2Cl)n1 [Example 96, [1-benzyl-3-(3-{1-(2,4-dichlorobenzyl)-3-[2-(dimethylamino)ethoxy]-1H-pyrazol-5-yl}propoxy)-1H-pyrazol-4-yl]acetic acid] | 78.3 to 80.8
27 | CCOc1cc(C(=O)c2ccccn2)ccc1OCCOc1c(CC(=O)O)cccc1OC [Example 123, (2-{2-[2-ethoxy-4-(pyridin-2-ylcarbonyl)phenoxy]ethoxy}-3-methoxyphenyl)acetic acid] | 184 to 186
28 | CCOc1cc(Cc2ccccn2)ccc1CCCOc1c(CC(=O)O)cccc1OC [Example 125, (2-{3-[2-ethoxy-4-(pyridin-2-ylmethyl)phenyl]propoxy}-3-methoxyphenyl)acetic acid] | 97.5 to 98.5
29 | CCn1cc(CC(=O)O)c(OCCCc2ccc(Cc3ccccn3)cc2OC(C)C)n1 [Example 126, (3-{3-[2-isopropoxy-4-(pyridin-2-ylmethyl)phenyl]propoxy}-1-ethyl-1H-pyrazol-4-yl)acetic acid] | 97 to 98
30 | CC(C)c1ncc(CCCOc2nn(C)cc2CC(=O)O)c(Oc2ccc(Cl)cc2Cl)n1 [Example 128, (3-{3-[4-(2,4-dichlorophenoxy)-2-isopropylpyrimidin-5-yl]propoxy}-1-methyl-1H-pyrazol-4-yl)acetic acid] | 107 to 108
31 | CC(C)c1ncc(CCCOc2nn(Cc3ccccc3)cc2CC(=O)O)c(Oc2ccc(Cl)cc2Cl)n1 [Example 129, (3-{3-[4-(2,4-dichlorophenoxy)-2-isopropylpyrimidin-5-yl]propoxy}-1-benzyl-1H-pyrazol-4-yl)acetic acid] | 98 to 99
32 | CCOc1ccc(CCCOc2c(CC(=O)O)cccc2OC)c(Oc2ccc(Cl)cc2Cl)n1 [Example 134, (2-{3-[2-(2,4-dichlorophenoxy)-6-ethoxypyridin-3-yl]propoxy}-3-methoxyphenyl)acetic acid] | 89 to 91
33 | CCOc1ccc(CCCOc2nn(C)cc2CC(=O)O)c(Oc2ccc(Cl)cc2Cl)n1 [Example 135, (3-{3-[2-(2,4-dichlorophenoxy)-6-ethoxypyridin-3-yl]propoxy}-1-methyl-1H-pyrazol-4-yl)acetic acid] | 81 to 83
34 | CC(C)Oc1ccc(CCCOc2cc(CCC(=O)O)n(C)n2)c(Oc2ncc(Cl)cc2Cl)c1 [Example 140, 3-[3-(3-{2-[(3,5-dichloropyridin-2-yl)oxy]-4-isopropoxyphenyl}propoxy)-1-methyl-1H-pyrazol-5-yl]propanoic acid] | 77 to 78
35 | COCCOc1ccc(CCCOc2cc(CCC(=O)O)n(C)n2)c(Oc2ncc(C(F)(F)F)cc2Cl)c1 [Example 148, 3-(3-{3-[2-{[3-chloro-5-(trifluoromethyl)pyridin-2-yl]oxy}-4-(2-methoxyethoxy)phenyl]propoxy}-1-methyl-1H-pyrazol-5-yl)propanoic acid] | 114 to 115

Reference: patent US20080051418A1, “Arylalkanoic Acid Derivative” (priority 2004, published 2008)
